# Reference: ChEMBL document CHEMBL1201862, “PubChem BioAssay data set” (2004)
#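 Briefly, cells in 96-well plates were exposed to five compound concentrations for 48 h, and endpoints were estimated by linear interpolation. GI50 marks 50% less growth.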 Calls of active or inactive are those of the source. Rule as the data show it: active = GI50 up to about 1.1 µM and inactive = higher.
# What was measured:
# Test in all cases: NCI tumour cell line growth inhibition, 48 h
# EKVX = tested on: EKVX
# SF-295 = tested on: SF-295
# UACC-257 = tested on: UACC-257
# NCI-H460 = tested on: NCI-H460
# HT-29 = tested on: HT-29
# HCC 2998 = tested on: HCC 2998
# RXF 393 = tested on: RXF 393
# HCT-116 = tested on: HCT-116
# A498 = tested on: A498
# U-251 = tested on: U-251
# MDA-N = tested on: MDA-N
# ACHN = tested on: ACHN
# SNB-75 = tested on: SNB-75
# SN12C = tested on: SN12C
# KM12 = tested on: KM12
# T47D = tested on: T47D
# CCRF-CEM = tested on: CCRF-CEM
# DU-145 = tested on: DU-145
# SK-MEL-2 = tested on: SK-MEL-2
# SF-268 = tested on: SF-268
# OVCAR-4 = tested on: OVCAR-4
# Hs-578T = tested on: Hs-578T
# OVCAR-3 = tested on: OVCAR-3
# M14 = tested on: M14
# LOX IMVI = tested on: LOX IMVI
# HL-60 = tested on: HL-60
# COLO 205 = tested on: COLO 205
# 786-0 = tested on: 786-0
# RPMI-8226 = tested on: RPMI-8226
# BT-549 = tested on: BT-549
# HCT-15 = tested on: HCT-15
# PC-3 = tested on: PC-3
# UO-31 = tested on: UO-31
# SK-MEL-28 = tested on: SK-MEL-28
# NCI-H226 = tested on: NCI-H226
# SF-539 = tested on: SF-539
# A549 = tested on: A549
# OVCAR-5 = tested on: OVCAR-5
# SR = tested on: SR
# Malme-3M = tested on: Malme-3M
# TK-10 = tested on: TK-10
# MOLT-4 = tested on: MOLT-4
# NCI-H522 = tested on: NCI-H522
# MCF7 = tested on: MCF7
# IGROV-1 = tested on: IGROV-1
# NCI/ADR-RES = tested on: NCI/ADR-RES
# SK-OV-3 = tested on: SK-OV-3
# HOP-62 = tested on: HOP-62
# SNB-19 = tested on: SNB-19
# SW-620 = tested on: SW-620
# CAKI-1 = tested on: CAKI-1
# HOP-92 = tested on: HOP-92
# NCI-H23 = tested on: NCI-H23
# OVCAR-8 = tested on: OVCAR-8
# K562 = tested on: K562
# SK-MEL-5 = tested on: SK-MEL-5
# UACC-62 = tested on: UACC-62
# MDA-MB-231 = tested on: MDA-MB-231
# MDA-MB-435 = tested on: MDA-MB-435
structure (smiles),measurement,setting,value
Cc1cc(S(=O)(=O)Nc2nc(N)nc(N3CCOCC3)n2)c(SCC(=O)O)cc1Cl,GI50,EKVX,> 10 µM (inactive)
same,GI50,SF-295,> 10 µM (inactive)
same,GI50,UACC-257,> 10 µM (inactive)
same,GI50,NCI-H460,> 10 µM (inactive)
same,GI50,HT-29,> 10 µM (inactive)
same,GI50,HCC 2998,> 10 µM (inactive)
same,GI50,RXF 393,> 10 µM (inactive)
same,GI50,HCT-116,> 10 µM (inactive)
same,GI50,A498,> 10 µM (inactive)
same,GI50,U-251,> 10 µM (inactive)
same,GI50,MDA-N,> 10 µM (inactive)
same,GI50,ACHN,> 10 µM (inactive)
same,GI50,SNB-75,> 10 µM (inactive)
same,GI50,SN12C,> 10 µM (inactive)
same,GI50,KM12,> 10 µM (inactive)
same,GI50,T47D,> 10 µM (inactive)
same,GI50,CCRF-CEM,> 10 µM (inactive)
same,GI50,DU-145,> 10 µM (inactive)
same,GI50,SK-MEL-2,> 10 µM (inactive)
same,GI50,SF-268,> 10 µM (inactive)
same,GI50,OVCAR-4,> 10 µM (inactive)
same,GI50,Hs-578T,> 10 µM (inactive)
same,GI50,OVCAR-3,> 10 µM (inactive)
same,GI50,M14,> 10 µM (inactive)
same,GI50,LOX IMVI,> 10 µM (inactive)
same,GI50,HL-60,> 10 µM (inactive)
same,GI50,COLO 205,> 10 µM (inactive)
same,GI50,786-0,> 10 µM (inactive)
same,GI50,RPMI-8226,> 10 µM (inactive)
same,GI50,BT-549,> 10 µM (inactive)
same,GI50,HCT-15,> 10 µM
same,GI50,PC-3,> 10 µM (inactive)
same,GI50,UO-31,> 10 µM (inactive)
same,GI50,SK-MEL-28,> 10 µM (inactive)
same,GI50,NCI-H226,> 10 µM (inactive)
same,GI50,SF-539,> 10 µM (inactive)
same,GI50,A549,> 10 µM (inactive)
same,GI50,OVCAR-5,> 10 µM (inactive)
same,GI50,SR,> 10 µM (inactive)
same,GI50,Malme-3M,> 10 µM (inactive)
same,GI50,TK-10,> 10 µM (inactive)
same,GI50,MOLT-4,> 10 µM (inactive)
same,GI50,NCI-H522,> 10 µM (inactive)
same,GI50,MCF7,> 10 µM (inactive)
same,GI50,IGROV-1,> 10 µM (inactive)
same,GI50,NCI/ADR-RES,> 10 µM (inactive)
same,GI50,SK-OV-3,> 10 µM (inactive)
same,GI50,HOP-62,> 10 µM (inactive)
same,GI50,SNB-19,> 10 µM (inactive)
same,GI50,SW-620,> 10 µM (inactive)
same,GI50,CAKI-1,> 10 µM (inactive)
same,GI50,HOP-92,> 10 µM (inactive)
same,GI50,NCI-H23,> 10 µM (inactive)
same,GI50,OVCAR-8,> 10 µM (inactive)
same,GI50,K562,> 10 µM (inactive)
same,GI50,SK-MEL-5,> 10 µM (inactive)
COc1ccc(NC(S)=Nc2ccccc2)cc1,GI50,EKVX,96.4 µM (inactive)
same,GI50,SF-295,> 100 µM (inactive)
same,GI50,UACC-257,39.4 µM (inactive)
same,GI50,NCI-H460,> 100 µM (inactive)
same,GI50,HT-29,> 100 µM (inactive)
same,GI50,HCC 2998,> 100 µM (inactive)
same,GI50,RXF 393,98.2 µM (inactive)
same,GI50,HCT-116,> 100 µM (inactive)
same,GI50,A498,> 100 µM (inactive)
same,GI50,U-251,> 100 µM (inactive)
same,GI50,MDA-N,> 100 µM (inactive)
same,GI50,ACHN,> 100 µM (inactive)
same,GI50,SNB-75,> 100 µM (inactive)
same,GI50,SN12C,> 100 µM (inactive)
same,GI50,UACC-62,> 100 µM (inactive)
same,GI50,DU-145,> 100 µM (inactive)
same,GI50,SK-MEL-2,> 100 µM (inactive)
same,GI50,SF-268,> 100 µM (inactive)
same,GI50,OVCAR-4,> 100 µM (inactive)
same,GI50,Hs-578T,> 100 µM (inactive)
same,GI50,MDA-MB-231,> 100 µM (inactive)
same,GI50,OVCAR-3,> 100 µM (inactive)
same,GI50,M14,> 100 µM (inactive)
same,GI50,LOX IMVI,> 100 µM (inactive)
same,GI50,HL-60,24.2 µM (inactive)
same,GI50,COLO 205,> 100 µM (inactive)
same,GI50,786-0,> 100 µM (inactive)
same,GI50,RPMI-8226,> 100 µM (inactive)
same,GI50,BT-549,> 100 µM (inactive)
same,GI50,HCT-15,> 100 µM
same,GI50,PC-3,> 100 µM (inactive)
same,GI50,UO-31,> 100 µM (inactive)
same,GI50,SK-MEL-28,> 100 µM (inactive)
same,GI50,NCI-H226,> 100 µM (inactive)
same,GI50,SF-539,> 100 µM (inactive)
same,GI50,A549,> 100 µM (inactive)
same,GI50,OVCAR-5,> 100 µM (inactive)
same,GI50,SR,> 100 µM (inactive)
same,GI50,Malme-3M,> 100 µM (inactive)
same,GI50,TK-10,> 100 µM (inactive)
same,GI50,NCI-H522,> 100 µM (inactive)
same,GI50,MCF7,> 100 µM (inactive)
same,GI50,IGROV-1,> 100 µM (inactive)
same,GI50,NCI/ADR-RES,> 100 µM (inactive)
same,GI50,SK-OV-3,> 100 µM (inactive)
same,GI50,HOP-62,> 100 µM (inactive)
same,GI50,SNB-19,> 100 µM (inactive)
same,GI50,SW-620,> 100 µM (inactive)
same,GI50,CAKI-1,> 100 µM (inactive)
same,GI50,MDA-MB-435,> 100 µM (inactive)
same,GI50,HOP-92,> 100 µM (inactive)
same,GI50,NCI-H23,> 100 µM (inactive)
same,GI50,OVCAR-8,> 100 µM (inactive)
same,GI50,K562,> 100 µM (inactive)
same,GI50,SK-MEL-5,> 100 µM (inactive)
